The values below come from US9416115B2, “Fused heterocyclic compounds as ion channel modulators” (Gilead Sciences, Inc., priority 2013, dated 2016).

Molecules are shown by their SMILES. Read-outs that look alike come from different tables or passages of the source.

Experiment [1] deals with T1, wild-type human cardiac sodium channel, hNav1.5 (Homo sapiens, UniProt Q14524). Briefly: Peak INa screening assay (tonic block and use-dependent block). The experiment is classed as cell-based. The procedure, abridged:
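Whole-cell automated patch clamp, 23-25° C, on hNav1.5 alpha-only HEK293 cells with Na+ lowered to 40 mM by choline. Block measured after two additions of 1 or 3 μM compound and 200 s wait: tonic at 0.1 Hz, use-dependent at 50th pulse (−20 mV, 20 ms, 3 Hz) from −100 mV, relative to drug-free, rundown corrected.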

Experiment [2] has as its target T1, wild-type human cardiac sodium channel, hNav1.5. The experiment is described as follows: Late INa screening assay (QPatch whole cell patch clamp, Tefluthrin-induced late current). The settings on record: 1 uM; HEK293 hNav1.5; percent block of late INa. The experiment is classed as cell-based. The procedure, abridged: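 HEK293 cells stably expressing hNav1.5 without beta subunits were whole-cell patch clamped at 23-25 °C, stepping from −120 to −20 mV for 250 ms at 0.1 Hz. Late current (240–265 ms) was induced with 10 μM Tefluthrin, and compounds were added typically at 0.3 or 1 μM. Percent block was taken against 0 Na baseline with rundown correction.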
On the technique in general: Patch clamp records ionic current or voltage across a cell membrane.

The mark [3] stands for this setting: tonic block of Peak INa, 0.1 Hz, holding -100 mV, read-out: Peak TB 3 uM.
Where [4] appears, read: use-dependent block of Peak INa, 3 Hz, pulse 50, read-out: Peak UDB 3 Hz 3 uM.

T1 sequence (Q14524 whole entry): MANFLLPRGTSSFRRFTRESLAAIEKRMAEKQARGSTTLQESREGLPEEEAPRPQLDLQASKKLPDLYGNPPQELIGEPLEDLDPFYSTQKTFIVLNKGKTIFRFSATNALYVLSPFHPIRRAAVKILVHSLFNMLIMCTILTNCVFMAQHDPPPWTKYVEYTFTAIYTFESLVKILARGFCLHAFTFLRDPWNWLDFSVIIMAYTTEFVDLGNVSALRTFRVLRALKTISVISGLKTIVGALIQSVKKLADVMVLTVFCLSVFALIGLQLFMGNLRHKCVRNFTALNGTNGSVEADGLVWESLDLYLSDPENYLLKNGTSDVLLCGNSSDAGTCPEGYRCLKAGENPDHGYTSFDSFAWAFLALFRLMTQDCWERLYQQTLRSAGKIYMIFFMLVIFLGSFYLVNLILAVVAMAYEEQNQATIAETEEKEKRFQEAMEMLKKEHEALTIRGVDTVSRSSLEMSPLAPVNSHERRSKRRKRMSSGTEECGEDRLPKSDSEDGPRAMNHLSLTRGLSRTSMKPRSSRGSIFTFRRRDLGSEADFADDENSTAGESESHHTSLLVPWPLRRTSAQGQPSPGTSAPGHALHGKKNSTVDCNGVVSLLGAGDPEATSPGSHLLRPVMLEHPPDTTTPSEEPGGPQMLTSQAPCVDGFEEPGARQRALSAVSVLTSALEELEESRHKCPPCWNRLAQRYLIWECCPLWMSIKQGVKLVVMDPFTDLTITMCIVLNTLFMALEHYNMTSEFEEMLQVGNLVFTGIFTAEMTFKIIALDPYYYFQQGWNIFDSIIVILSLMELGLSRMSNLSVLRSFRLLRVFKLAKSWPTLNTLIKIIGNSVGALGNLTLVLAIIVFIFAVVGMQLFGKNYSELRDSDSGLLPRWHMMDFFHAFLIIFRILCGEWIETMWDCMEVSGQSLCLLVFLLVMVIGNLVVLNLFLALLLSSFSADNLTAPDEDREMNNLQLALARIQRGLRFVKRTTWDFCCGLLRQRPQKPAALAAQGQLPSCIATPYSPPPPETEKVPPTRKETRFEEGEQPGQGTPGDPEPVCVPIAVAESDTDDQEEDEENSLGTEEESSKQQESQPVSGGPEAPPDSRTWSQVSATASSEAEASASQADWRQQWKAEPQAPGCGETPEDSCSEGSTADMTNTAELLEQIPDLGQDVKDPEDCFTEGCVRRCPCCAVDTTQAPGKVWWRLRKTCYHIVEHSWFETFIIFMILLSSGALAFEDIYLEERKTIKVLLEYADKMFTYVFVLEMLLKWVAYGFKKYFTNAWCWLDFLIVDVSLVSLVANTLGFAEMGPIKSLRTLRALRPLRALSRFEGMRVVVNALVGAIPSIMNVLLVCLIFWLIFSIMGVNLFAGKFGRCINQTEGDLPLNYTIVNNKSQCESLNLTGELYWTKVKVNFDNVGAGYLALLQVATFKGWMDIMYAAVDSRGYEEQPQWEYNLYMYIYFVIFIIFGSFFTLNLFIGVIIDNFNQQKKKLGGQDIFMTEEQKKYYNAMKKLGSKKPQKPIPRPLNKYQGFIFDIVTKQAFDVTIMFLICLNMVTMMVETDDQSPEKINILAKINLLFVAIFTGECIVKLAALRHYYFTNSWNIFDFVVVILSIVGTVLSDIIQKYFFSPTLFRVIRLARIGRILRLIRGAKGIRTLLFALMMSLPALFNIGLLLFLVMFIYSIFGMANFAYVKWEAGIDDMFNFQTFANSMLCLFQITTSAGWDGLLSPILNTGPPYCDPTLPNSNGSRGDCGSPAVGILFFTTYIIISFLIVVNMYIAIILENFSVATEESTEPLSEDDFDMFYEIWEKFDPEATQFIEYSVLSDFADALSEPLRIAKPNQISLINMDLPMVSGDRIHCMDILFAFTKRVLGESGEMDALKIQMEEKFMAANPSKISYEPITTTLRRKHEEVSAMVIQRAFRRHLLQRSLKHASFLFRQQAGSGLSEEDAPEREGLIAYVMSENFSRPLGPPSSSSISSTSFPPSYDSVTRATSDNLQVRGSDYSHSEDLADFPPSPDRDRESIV

In the case of `COc1cc(-c2ccc(C(F)(F)F)cc2F)cc2c(OCc3ncccn3)noc12` [Example 24, 5-(2-fluoro-4-(trifluoromethyl)phenyl)-7-methoxy-3-(pyrimidin-2-ylmethoxy)benzo[d]isoxazole], the inhibition at 3 µM in experiment [1] (setting [3]) was 10%; in experiment [1] (setting [4]), under 5%. For the same molecule, in experiment [2], the inhibition at 1 µM amounted to 36%.

On to `CCn1cncc1COc1noc2ccc(-c3ccc(OC(F)(F)F)cc3)cc12` [Example 49, 3-((1-ethyl-1H-imidazol-5-yl)methoxy)-5-(4-(trifluoromethoxy)phenyl)benzo[d]isoxazole], for which the inhibition at 3 µM was 16.9% in experiment [1] (setting [3]) and under 5% in experiment [1] (setting [4]). For the same molecule, in experiment [2], the inhibition at 1 µM turned out to be 39.6%.

As to `FC(F)(F)COc1ccc(-c2ccc3onc(OCc4ncccn4)c3c2)cn1` [Example 21, 3-(pyrimidin-2-ylmethoxy)-5-(6-(2,2,2-trifluoroethoxy)pyridin-3-yl)benzo[d]isoxazole], the figures for the inhibition at 3 µM in experiment [1] (setting [3]) and in experiment [1] (setting [4]) were 13% and under 5%, respectively. In experiment [2], this molecule registered an inhibition at 1 µM of 48.8%.

For the molecule `Fc1cc(C(F)(F)F)ccc1-c1cc2c(OCc3ncccn3)noc2cc1F` [Example 33, 6-fluoro-5-(2-fluoro-4-(trifluoromethyl)phenyl)-3-(pyrimidin-2-ylmethoxy)benzo[d]isoxazole], the inhibition at 3 µM in experiment [1] (setting [3]) was 20.9%; in experiment [1] (setting [4]), 5.1%. Also, in experiment [2], the inhibition at 1 µM is 35.5%.

Turning to `CC(Oc1noc2ccc(-c3ccc(OC(F)(F)F)cc3)cc12)c1ccccn1` (stereo not shown) [Example 98, 3-(1-(pyridin-2-yl)ethoxy)-5-(4-(trifluoromethoxy)phenyl)benzo[d]isoxazole], the figures for the inhibition at 3 µM in experiment [1] (setting [3]) and in experiment [1] (setting [4]) were 28.7% and under 5%, respectively. This molecule showed an inhibition at 1 µM in experiment [2] of 38.7%.

Regarding `CC(C)n1ccnc1COc1noc2ccc(-c3ccc(OC(F)(F)F)cc3)cc12` [Example 48, 3-((1-isopropyl-1H-imidazol-2-yl)methoxy)-5-(4-(trifluoromethoxy)phenyl)benzo[d]isoxazole], the inhibition at 3 µM amounted to 9.1% in experiment [1] (setting [3]) and 5.7% in experiment [1] (setting [4]). In experiment [2], this molecule had an inhibition at 1 µM of 51.2%.

As for `O=C1CCCN1CCOc1noc2c(F)cc(-c3ccc(OC(F)(F)F)cc3)cc12` [Example 80, 1-(2-((7-fluoro-5-(4-(trifluoromethoxy)phenyl)benzo[d]isoxazol-3-yl)oxy)ethyl)pyrrolidin-2-one], the values for the inhibition at 3 µM in experiment [1] (setting [3]) and in experiment [1] (setting [4]) were 17.3% and 13.7%, respectively. The same molecule came in with an inhibition at 1 µM in experiment [2] of 35.6%.

Consider `COc1ccnc(COc2noc3ccc(-c4ccc(OC(F)(F)F)cc4)cc23)c1` [Example 81, 3-((4-methoxypyridin-2-yl)methoxy)-5-(4-(trifluoromethoxy)phenyl)benzo[d]isoxazole], for which the inhibition at 3 µM in experiment [1] (setting [3]) was 23.5%; in experiment [1] (setting [4]), under 5%. For the same molecule, in experiment [2], the inhibition at 1 µM is 33.7%.

Take `Cc1cc(OC(F)(F)F)ccc1-c1cc2c(OCc3ncccn3)noc2cc1C` [Example 29, 6-methyl-5-(2-methyl-4-(trifluoromethoxy)phenyl)-3-(pyrimidin-2-ylmethoxy)benzo[d]isoxazole]: the values for the inhibition at 3 µM in experiment [1] (setting [3]) and in experiment [1] (setting [4]) were 8.1% and under 5%, respectively. The molecule further had an inhibition at 1 µM in experiment [2] of 46.4%.

With `FC(F)(F)Oc1ccc(-c2ccc3onc(OCc4cn[nH]c4)c3c2)cc1` [Example 45, 3-((1H-pyrazol-4-yl)methoxy)-5-(4-(trifluoromethoxy)phenyl)benzo[d]isoxazole], the inhibition at 3 µM in experiment [1] (setting [3]) came out at 16.8%; in experiment [1] (setting [4]), 15.1%. In experiment [2], this molecule had an inhibition at 1 µM of 43.6%.

On to `Cc1nc(C)n(C(C)COc2noc3ccc(-c4ccc(OC(F)(F)F)cc4)cc23)n1` (stereo not shown) [Example 79, 3-(2-(3,5-dimethyl-1H-1,2,4-triazol-1-yl)propoxy)-5-(4-(trifluoromethoxy)phenyl)benzo[d]isoxazole], for which the figures for the inhibition at 3 µM in experiment [1] (setting [3]) and in experiment [1] (setting [4]) were 26% and under 5%, respectively. This molecule returned an inhibition at 1 µM in experiment [2] of 46.1%.

As to `CC(COc1noc2ccc(-c3ccc(OC(F)(F)F)cc3)cc12)n1cncn1` (stereo not shown) [Example 77, 3-(2-(1H-1,2,4-triazol-1-yl)propoxy)-5-(4-(trifluoromethoxy)phenyl)benzo[d]isoxazole], the inhibition at 3 µM in experiment [1] (setting [3]) amounted to 34.6%; in experiment [1] (setting [4]), 8.3%. For the same molecule, the inhibition at 1 µM in experiment [2] came to 49.2%.

With `OCC1(COc2noc3ccc(-c4ccc(OC(F)(F)F)cc4)cc23)COC1` [Example 97, (3-(((5-(4-(trifluoromethoxy)phenyl)benzo[d]isoxazol-3-yl)oxy)methyl)oxetan-3-yl)methanol], the inhibition at 3 µM is 26.5% in experiment [1] (setting [3]) and under 5% in experiment [1] (setting [4]). The molecule also returned an inhibition at 1 µM in experiment [2] of 39%.

Turning to `FC1(F)Oc2ccc(-c3ccc4onc(OCc5ncccn5)c4c3)cc2O1` [Example 30, 5-(2,2-difluorobenzo[d][1,3]dioxol-5-yl)-3-(pyrimidin-2-ylmethoxy)benzo[d]isoxazole], the inhibition at 3 µM in experiment [1] (setting [3]) was 15.2%; in experiment [1] (setting [4]), under 5%. This molecule yielded an inhibition at 1 µM in experiment [2] of 42.5%.

Take `Cn1cncc1COc1noc2ccc(-c3ccc(OC(F)(F)F)cc3)cc12` [Example 50, 3-((1-methyl-1H-imidazol-5-yl)methoxy)-5-(4-(trifluoromethoxy)phenyl)benzo[d]isoxazole]: the inhibition at 3 µM in experiment [1] (setting [4]) was under 5%. Moreover, the inhibition at 1 µM in experiment [2] was determined as 32.5%.

Turning to `Fc1cc2onc(OCc3ncccn3)c2cc1-c1ccc2c(c1)OC(F)(F)O2` [Example 35, 5-(2,2-difluorobenzo[d][1,3]dioxol-5-yl)-6-fluoro-3-(pyrimidin-2-ylmethoxy)benzo[d]isoxazole], the values for the inhibition at 3 µM in experiment [1] (setting [3]) and in experiment [1] (setting [4]) were 17.4% and under 5%, respectively. The inhibition at 1 µM in experiment [2] came out at 33.6%.

For the molecule `FC(F)(F)Oc1ccc(-c2ccc3onc(OCCn4cnnc4)c3c2)cc1` [Example 63, 3-(2-(4H-1,2,4-triazol-4-yl)ethoxy)-5-(4-(trifluoromethoxy)phenyl)benzo[d]isoxazole], the inhibition at 3 µM is 39% in experiment [1] (setting [3]) and 13.3% in experiment [1] (setting [4]). The same molecule displayed an inhibition at 1 µM in experiment [2] of 44.1%.

`O=C1CC[C@H](COc2noc3ccc(-c4ccc(OC(F)(F)F)cc4)cc23)N1` [Example 61, (R)-5-(((5-(4-(trifluoromethoxy)phenyl)benzo[d]isoxazol-3-yl)oxy)methyl)pyrrolidin-2-one]: the inhibition at 3 µM stood at 11.8% in experiment [1] (setting [3]) and 6.6% in experiment [1] (setting [4]). The molecule further showed an inhibition at 1 µM in experiment [2] of 38.2%.

`Cc1cc(-c2ccc(OC(F)(F)F)cc2)cc2c(OCCn3cncn3)noc12` [Example 89, 3-(2-(1H-1,2,4-triazol-1-yl)ethoxy)-7-methyl-5-(4-(trifluoromethoxy)phenyl)benzo[d]isoxazole]: the inhibition at 3 µM was 5.7% in experiment [1] (setting [3]) and under 5% in experiment [1] (setting [4]). In addition, the inhibition at 1 µM in experiment [2] is 33.2%.

For `FC(F)(F)Oc1ccc(-c2ccc3onc(OCc4cn5ccccc5n4)c3c2)cc1` [Example 51, 3-(imidazo[1,2-a]pyridin-2-ylmethoxy)-5-(4-(trifluoromethoxy)phenyl)benzo[d]isoxazole], the figures for the inhibition at 3 µM in experiment [1] (setting [3]) and in experiment [1] (setting [4]) were 12.3% and 7.7%, respectively. Moreover, the inhibition at 1 µM in experiment [2] was 38.8%.

On to `COc1cc(-c2ccc(OC(F)(F)F)c(C)c2)cc2c(OCc3ncccn3)noc12` [Example 23, 7-methoxy-5-(3-methyl-4-(trifluoromethoxy)phenyl)-3-(pyrimidin-2-ylmethoxy)benzo[d]isoxazole], for which the inhibition at 3 µM in experiment [1] (setting [4]) was under 5%. In experiment [2], this molecule had an inhibition at 1 µM of 45.3%.

As for `FC(F)(F)Oc1ccc(-c2ccc3onc(OCCN4CCOCC4)c3c2)cc1` [Example 78, 3-(2-morpholinoethoxy)-5-(4-(trifluoromethoxy)phenyl)benzo[d]isoxazole], the inhibition at 3 µM was found to be 38.7% in experiment [1] (setting [3]) and 19.5% in experiment [1] (setting [4]). Moreover, in experiment [2], the inhibition at 1 µM was determined as 47.1%.

Regarding `Cc1cc(-c2cc(C)c3onc(OCc4ncccn4)c3c2)ccc1OC(F)(F)F` [Example 18, 7-methyl-5-(3-methyl-4-(trifluoromethoxy)phenyl)-3-(pyrimidin-2-ylmethoxy)benzo[d]isoxazole], the inhibition at 3 µM was 27.7% in experiment [1] (setting [3]) and 5.2% in experiment [1] (setting [4]). The molecule further displayed an inhibition at 1 µM in experiment [2] of 38.2%.

As for `Cn1cc(COc2noc3ccc(-c4ccc(OC(F)(F)F)cc4)cc23)nn1` [Example 44], the inhibition at 3 µM in experiment [1] (setting [3]) was 29.9%; in experiment [1] (setting [4]), 10.4%. The molecule also gave an inhibition at 1 µM in experiment [2] of 48.2%.

For the molecule `Fc1cc2onc(OCc3ncccn3)c2cc1-c1ccc(OC(F)(F)F)cc1` [Example 31, 6-fluoro-3-(pyrimidin-2-ylmethoxy)-5-(4-(trifluoromethoxy)phenyl)benzo[d]isoxazole], the inhibition at 3 µM in experiment [1] (setting [3]) was 18.5%; in experiment [1] (setting [4]), under 5%. In experiment [2], the inhibition at 1 µM worked out at 43.9%.

Regarding `CC1(COc2noc3ccc(-c4ccc(OC(F)(F)F)cc4)cc23)COC1` [Example 92, 3-((3-methyloxetan-3-yl)methoxy)-5-(4-(trifluoromethoxy)phenyl)benzo[d]isoxazole], the inhibition at 3 µM is 9.6% in experiment [1] (setting [3]) and under 5% in experiment [1] (setting [4]). Also, in experiment [2], the inhibition at 1 µM is 36.3%.

For `Cc1nc(C)n(CCOc2noc3ccc(-c4ccc(OC(F)(F)F)cc4)cc23)n1` [Example 76, 3-(2-(3,5-dimethyl-1H-1,2,4-triazol-1-yl)ethoxy)-5-(4-(trifluoromethoxy)phenyl)benzo[d]isoxazole], the inhibition at 3 µM in experiment [1] (setting [3]) was 49.9%; in experiment [1] (setting [4]) it was under 5%. This molecule also yielded an inhibition at 1 µM in experiment [2] of 55.2%.
